Consider 11 compounds from US8309557B2, “Pyrimidin-4-ylpropanedinitrile derivatives, processes for their preparation and their use as herbicides and plant growth regulators” (Bayer Intellectual Property GmbH, priority 2009, dated 2012).

Common to all, as to type: in vivo
Assay [1] deals with Viola tricolor. The assay can be described thus: Herbicidal effect pre-emergence, VIOTR. Conditions: 320 g/hectare, visual grading after 3 weeks vs untreated controls. From the text: (§1) Seeds of mono- and dicotyledonous weed plants and crop plants are planted in wood-fiber pots in sandy loam and covered with earth. The compounds according to the invention, formulated in the form of wettable powders (WP) or as emulsion concentrates (EC), are then applied to the surface of the covering earth as aqueous suspension or emulsion at an application rate corresponding to 320 g/hectare at an application rate of 600 to 800 l of water/ha (converted) with the addition of 0.2% wetting agent.
(§2) Following treatment, the pots are placed in a greenhouse and kept under good growth conditions for the test plants. The visual grading of the damage to the test plants is carried out after a test time of 3 weeks in comparison to untreated controls (herbicidal effect in percent (%): 100% effect=plants have died off, 0% effect=as control plants).

The next assay has as its system Stellaria media. Briefly: Herbicidal effect post-emergence, STEME. On the procedure:
(§3) Seeds of mono- and dicotyledonous weed plants and crop plants are planted in wood-fiber pots in sandy loam, covered with earth and grown in a greenhouse under good growth conditions. 2 to 3 weeks after sowing, the test plants are treated in the single-leaf stage. The compounds according to the invention, formulated in the form of wettable powders (WP) or as emulsion concentrates (EC), are then sprayed onto the green plant parts as aqueous suspension or emulsion using an application rate of 600 to 800 l of water/ha (converted) with the addition of 0.2% by weight of wetting agent. After the test plants had been in the greenhouse for ca. 3 weeks under optimum growth conditions, the effect of the preparations is scored visually in comparison with untreated controls (herbicidal effect in percent (%): 100% effect=plants have died off, 0% effect=as control plants).

Assay [2] deals with Setaria viridis. Briefly: Herbicidal effect pre-emergence, SETVI. Conditions: 320 g/hectare, visual grading after 3 weeks vs untreated controls.
Description: as §1, §2

Assay [3] relates to Abutilon theophrasti. Briefly: Herbicidal effect post-emergence, ABUTH. The procedure: as §3
Assay [4] concerns Amaranthus retroflexus. Briefly: Herbicidal effect post-emergence, AMARE. The procedure: as §3
The test system of assay [5] is Amaranthus retroflexus. Briefly: Herbicidal effect pre-emergence, AMARE. Conditions: 320 g/hectare, visual grading after 3 weeks vs untreated controls.
Description: as §1, §2

The test system of assay [6] is Setaria viridis. Briefly: Herbicidal effect post-emergence, SETVI. On the procedure:
as §3

Assay [7] deals with Veronica persica. The assay can be described thus: Herbicidal effect post-emergence, VERPE. On the procedure:
as §3

The subject of the next assay is Echinochloa crus-galli. Briefly: Herbicidal effect post-emergence, ECHCG. On the procedure: as §3
Assay [8] has as its system Viola tricolor. The assay can be described thus: Herbicidal effect post-emergence, VIOTR. On the procedure:
as §3

Assay [9] deals with Veronica persica. Briefly: Herbicidal effect pre-emergence, VERPE. The note with it: 320 g/hectare, visual grading after 3 weeks vs untreated controls.
Description: as §1, §2

The test system of the next assay is Matricaria inodora. The assay can be described thus: Herbicidal effect post-emergence, MATIN. The procedure:
as §3

The test system of assay [10] is Polygonum (Fallopia) convolvulus. The assay can be described thus: Herbicidal effect post-emergence, POLCO. On the procedure: as §3
In assay [11] the test system is Abutilon theophrasti. The assay can be described thus: Herbicidal effect pre-emergence, ABUTH. Conditions: 320 g/hectare, visual grading after 3 weeks vs untreated controls.
Description: as §1, §2

In assay [12] the test system is Tripleurospermum inodorum. Briefly: Herbicidal effect pre-emergence, MATIN. The note with it: 320 g/hectare, visual grading after 3 weeks vs untreated controls.
Description: as §1, §2

In a further assay the test system is Ipomoea purpurea. The assay can be described thus: Herbicidal effect post-emergence, PHBPU. On the procedure:
as §3

Turning to `C[N+](C)(C)C.N#C[C-](C#N)c1nc(-c2ccc(Cl)cc2)nc(N)c1Cl` [Compound 312], the results for the “Effect in % in respect of stated plant, VIOTR” value (from here on “Effect in % … VIOTR”) in the assay with Viola tricolor [1] and in the assay on Viola tricolor [8] were 100% and 80%, respectively. The “Effect in % in respect of stated plant, STEME” value (“Effect in % … STEME” for short) in the assay on Stellaria media is reported as 80%. In addition, the “Effect in % in respect of stated plant, SETVI” value (“Effect in % … SETVI” below) in the assay on Setaria viridis [2] and in the assay on Setaria viridis [6] was 90% each time. In addition, the “Effect in % in respect of stated plant, ABUTH” value (from here on “Effect in % … ABUTH”) in the assay on Abutilon theophrasti [3] was determined as 85%. The “Effect in % in respect of stated plant, AMARE” value (“Effect in % … AMARE” for short) was determined as 90% with Amaranthus retroflexus [4] and 95% with Amaranthus retroflexus [5]. Besides, the “Effect in % in respect of stated plant, VERPE” value (shortened to “Effect in % … VERPE”) with Veronica persica [7] is 95%; in the assay with Veronica persica [9], 100%. Moreover, the “Effect in % in respect of stated plant, ECHCG” value (“Effect in % … ECHCG” below) in the assay with Echinochloa crus-galli turned out to be 85%. The “Effect in % in respect of stated plant, MATIN” value (shortened to “Effect in % … MATIN”) in the assay on Matricaria inodora was found to be 90%. Moreover, the “Effect in % in respect of stated plant, POLCO” value (“Effect in % … POLCO” for short) in [10] is listed as 90%.

For the compound `Cc1ccc(-c2nc(N)c(Cl)c(C(C#N)C#N)n2)cc1` [compound 12], the “Effect in % … ABUTH” value with Abutilon theophrasti [3] and with Abutilon theophrasti [11] was 80% throughout. The results for the “Effect in % … AMARE” value in the assay with Amaranthus retroflexus [4] and in the assay on Amaranthus retroflexus [5] were 90% and 100%, respectively. Also, the entries for the “Effect in % … VERPE” value with Veronica persica [7] and in the assay on Veronica persica [9] were 90% and 100%, respectively. Also, the “Effect in % … ECHCG” value in the assay with Echinochloa crus-galli was found to be 80%. Moreover, the “Effect in % … MATIN” value in the assay on Matricaria inodora was 80%. The “Effect in % … POLCO” value in assay [10] was 80%.

With `CN(C)C.N#CC(C#N)c1nc(-c2ccc(Cl)cc2)nc(N)c1Cl` [Compound 311], the “Effect in % … VIOTR” value with Viola tricolor [1] stood at 100%; with Viola tricolor [8] it was 80%. Further, in the assay with Stellaria media, the “Effect in % … STEME” value turned out to be 80%. The “Effect in % … SETVI” value stood at 90% in the assay with Setaria viridis [2] and 80% in the assay with Setaria viridis [6]. Moreover, the “Effect in % … ABUTH” value with Abutilon theophrasti [3] amounted to 90%; in the assay with Abutilon theophrasti [11], 80%. Also, the “Effect in % … AMARE” value in the assay on Amaranthus retroflexus [4] worked out at 90%; in the assay on Amaranthus retroflexus [5] it was 100%. Further, the “Effect in % … VERPE” value turned out to be 90% in the assay with Veronica persica [7] and 100% in the assay on Veronica persica [9]. The “Effect in % … MATIN” value (in assay [12]; in the assay on Matricaria inodora) was 90% in each case. The “Effect in % … ECHCG” value in the assay with Echinochloa crus-galli was 90%. The “Effect in % … POLCO” value in assay [10] is recorded as 90%.

On to `N.N#CC(C#N)c1nc(-c2ccc(Br)cc2F)nc(N)c1Cl` [Compound 392], for which the figures for the “Effect in % … VIOTR” value in the assay with Viola tricolor [1] and with Viola tricolor [8] were 100% and 90%, respectively. In the assay on Stellaria media, the “Effect in % … STEME” value is 90%. In the assay with Abutilon theophrasti [3], the “Effect in % … ABUTH” value is reported as 90%. Also, the “Effect in % … AMARE” value in the assay with Amaranthus retroflexus [4] turned out to be 100%; with Amaranthus retroflexus [5], 80%. Moreover, the “Effect in % … SETVI” value with Setaria viridis [6] came out at 80%. The “Effect in % … VERPE” value with Veronica persica [7] is given as 90%; in the assay on Veronica persica [9], 100%. In addition, in the assay on Echinochloa crus-galli, the “Effect in % … ECHCG” value worked out at 80%. In addition, in the assay with Matricaria inodora, the “Effect in % … MATIN” value is listed as 100%. Moreover, the “Effect in % … POLCO” value in assay [10] was 90%.

Regarding `N.N#CC(C#N)c1nc(-c2ccc(Br)cc2)nc(N)c1Cl` [Compound 321], the results for the “Effect in % … VIOTR” value with Viola tricolor [1] and in the assay with Viola tricolor [8] were 100% and 90%, respectively. In addition, the “Effect in % … STEME” value in the assay with Stellaria media amounted to 80%. The “Effect in % … ABUTH” value with Abutilon theophrasti [3] is recorded as 90%. Besides, the entries for the “Effect in % … AMARE” value in the assay on Amaranthus retroflexus [4] and with Amaranthus retroflexus [5] were 100% and 90%, respectively. Moreover, in the assay on Setaria viridis [6], the “Effect in % … SETVI” value was found to be 80%. Also, the “Effect in % … VERPE” value in the assay on Veronica persica [7] came to 90%; in the assay with Veronica persica [9] it was 100%. For the same compound, the “Effect in % … ECHCG” value in the assay on Echinochloa crus-galli came out at 90%. Further, in the assay on Matricaria inodora, the “Effect in % … MATIN” value turned out to be 100%. The “Effect in % … POLCO” value in assay [10] amounted to 100%.

For `N.N#CC(C#N)c1nc(-c2ccc(Cl)c(C(F)(F)F)c2)nc(N)c1Cl` [Compound 335], the “Effect in % … VIOTR” value in the assay with Viola tricolor [1] is given as 80%. In the assay on Amaranthus retroflexus [4], the “Effect in % … AMARE” value is given as 80%. Also, the “Effect in % … MATIN” value (in assay [12]; in the assay on Matricaria inodora) was 80% each time. Besides, the “Effect in % … VERPE” value in the assay on Veronica persica [9] came out at 100%.

With `CC(C)c1nc(N)c(Cl)c(C(C#N)C#N)n1` [compound 265], in the assay with Stellaria media, the “Effect in % … STEME” value was found to be 90%. Further, the “Effect in % … ABUTH” value in the assay with Abutilon theophrasti [3] worked out at 80%. In addition, the “Effect in % … AMARE” value in the assay on Amaranthus retroflexus [4] came to 100%. Also, in the assay on Veronica persica [7], the “Effect in % … VERPE” value is on record as 90%. Also, the “Effect in % in respect of stated plant, PHBPU” value with Ipomoea purpurea was 100%. The “Effect in % … MATIN” value in the assay on Matricaria inodora turned out to be 90%. For the same compound, the “Effect in % … POLCO” value in assay [10] is given as 90%.

`N#CC(C#N)c1nc(-c2ccc(Cl)cc2F)nc(N)c1Cl` [compound 110]: the “Effect in % … VIOTR” value in the assay on Viola tricolor [1] and in the assay on Viola tricolor [8] was 90% throughout. For the same compound, the “Effect in % … STEME” value in the assay with Stellaria media came out at 90%. The “Effect in % … SETVI” value in the assay with Setaria viridis [2] and with Setaria viridis [6] was 80% throughout. For the same compound, the “Effect in % … AMARE” value in the assay with Amaranthus retroflexus [4] is on record as 90%; in the assay on Amaranthus retroflexus [5], 100%. The “Effect in % … VERPE” value in the assay with Veronica persica [7] amounted to 90%; in the assay on Veronica persica [9] it was 100%. The “Effect in % … ECHCG” value in the assay with Echinochloa crus-galli is 80%. Also, the “Effect in % in respect of stated plant, PHBPU” value in the assay on Ipomoea purpurea is given as 80%. Also, the “Effect in % … MATIN” value with Matricaria inodora turned out to be 90%. Moreover, the “Effect in % … POLCO” value in assay [10] is reported as 95%.

Take `Cc1ccc(-c2nc(N)c(Cl)c(C(C#N)C#N)n2)cc1.N` [Compound 296]: the “Effect in % … ABUTH” value in the assay with Abutilon theophrasti [3] and in the assay on Abutilon theophrasti [11] was 80% in each case. For the same compound, the “Effect in % … AMARE” value in the assay on Amaranthus retroflexus [4] is given as 90%; with Amaranthus retroflexus [5] it was 100%. The entries for the “Effect in % … VERPE” value in the assay with Veronica persica [7] and in the assay with Veronica persica [9] were 90% and 100%, respectively. In the assay with Echinochloa crus-galli, the “Effect in % … ECHCG” value was found to be 80%. Besides, the “Effect in % … MATIN” value in the assay on Matricaria inodora is recorded as 90%.

Take `N#C[C-](C#N)c1nc(-c2ccc(Cl)cc2)nc(N)c1Cl.[Na+]` [Ex. No. 304, Sodium [6-amino-5-chloro-2-(4-chlorophenyl)pyrimidin-4-yl](dicyano)methanide]: the “Effect in % … STEME” value in the assay on Stellaria media is listed as 80%. In addition, the “Effect in % … SETVI” value in the assay with Setaria viridis [2] was determined as 80%. The “Effect in % … ABUTH” value in the assay with Abutilon theophrasti [3] was found to be 80%. Moreover, the “Effect in % … AMARE” value in the assay with Amaranthus retroflexus [4] was 100%; in the assay with Amaranthus retroflexus [5] it was 90%. The “Effect in % … MATIN” value in [12] is reported as 80%; in the assay with Matricaria inodora it was 90%. In addition, in the assay with Viola tricolor [8], the “Effect in % … VIOTR” value is reported as 80%. The “Effect in % … VERPE” value in the assay on Veronica persica [9] was 100%. Also, in assay [10], the “Effect in % … POLCO” value is 80%.

As to `CNc1nc(-c2ccc(Cl)cc2)nc(C(C#N)C#N)c1Cl` [Ex. No. 41, [5-Chloro-2-(4-chlorophenyl)-6-(methylamino)pyrimidin-4-yl]propanedinitrile], the “Effect in % … VIOTR” value in the assay on Viola tricolor [1] was found to be 100%. Moreover, the “Effect in % … MATIN” value in assay [12] came to 80%.
